The supplement of paper PMC10307832

Columns and labels:
Assay in all cases: relative viability (nuclei count vs DMSO), 5 days (fraction); higher = more cells survive
[1] = compound: CCn1c(-c2nonc2N)nc2cnc(Oc3cccc(NC(=O)c4ccc(OCCN5CCOCC5)cc4)c3)cc21 + CCNC(=O)c1noc(-c2cc(C(C)C)c(O)cc2O)c1-c1ccc(CN2CCOCC2)cc1 [Luminespib] (partner 0.01 µM)
In short: (§1)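 Lung cancer cell lines in 1536-well plates were dosed by pin tool the day after seeding, either with one drug alone or with a fixed anchor-drug dose plus five library-drug doses (not always all listed) in √10 steps. After 5 days, cells were fixed and their nuclei stained in one step (final 0.05% Triton X-100, 1% formaldehyde, 1 ug/ml Hoechst), then counted on 4× images. Relative viability is the nuclei count in treated wells divided by that in vehicle wells. Values are medians of duplicate plates.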

[2] = compound: CCC1=CN=CN=C1N2CCN(CC2)CC3=NC4=C(N3)C=C(C=C4)C(F)(F)F + C[C@@H](Oc1cc(-c2cnn(C3CCNCC3)c2)cnc1N)c1c(Cl)ccc(F)c1Cl [Crizotinib] (partner 1 µM)
In short: as §1

Mirin + Luminespib = compound: N=C1NC(=O)/C(=C/c2ccc(O)cc2)S1 [Mirin] + CCNC(=O)c1noc(-c2cc(C(C)C)c(O)cc2O)c1-c1ccc(CN2CCOCC2)cc1 [Luminespib] (partner 0.01 µM)
In short: as §1

[3] = compound: CCC1=CN=CN=C1N2CCN(CC2)CC3=NC4=C(N3)C=C(C=C4)C(F)(F)F + Nc1ncn([C@H]2C[C@H](O)[C@@H](CO)O2)c(=O)n1 [Decitabine] (partner 2 µM)
In short: as §1

UMC-11 showed a relative viability ([1]; first compound 0.04 µM) of 1.03, a relative viability ([1]; first compound 0.1265 µM) of 0.915 and a relative viability ([1]; first compound 0.4 µM) of 0.83. The relative viability ([1]; first compound 1.265 µM) was 0.291, the relative viability ([1]; first compound 4 µM) was 0.222 and the relative viability ([2]; first compound 0.04 µM) was 0.572. It also gave a relative viability ([2]; first compound 0.1265 µM) of 0.611, a relative viability ([2]; first compound 0.4 µM) of 0.621 and a relative viability ([2]; first compound 1.265 µM) of 0.615. The relative viability ([2]; first compound 4 µM) was 0.906, the relative viability (Mirin + Luminespib; first compound 0.25 µM) was 1.09 and the relative viability (Mirin + Luminespib; first compound 0.7906 µM) was 0.983. The relative viability (Mirin + Luminespib; first compound 2.5 µM) was 1.01, the relative viability (Mirin + Luminespib; first compound 7.906 µM) was 0.826 and the relative viability (Mirin + Luminespib; first compound 25 µM) was 0.695. The relative viability ([3]; first compound 0.04 µM) was 0.622, the relative viability ([3]; first compound 0.1265 µM) was 0.562 and the relative viability ([3]; first compound 0.4 µM) was 0.602. The relative viability ([3]; first compound 1.265 µM) was 0.379 and the relative viability ([3]; first compound 4 µM) was 0.351.
